From patent US6737383B1, “Herbicidal oxadiazolidines” (priority 1999, dated 2004)

Assays:
wild oat = assay: Test E wild oat; format: in vivo, Avena fatua; details: Preemergence
Italian ryegrass = assay: Test E Italian ryegrass; format: in vivo, Lolium multiflorum; details: Preemergence
rape = assay: Test B pre/postemergence rape; format: in vivo, Brassica napus
Outline: (§1)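 Test chemicals in a non-phytotoxic solvent mixture with surfactant were sprayed preemergence onto planted seeds and postemergence onto plants 2 to 18 cm tall (1- to 4-leaf stage). After twelve to sixteen days in a greenhouse, injury was visually rated against untreated controls from 0 (no effect) to 10 (complete control).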

winter wheat [1] = assay: Test E winter wheat; format: in vivo, Triticum aestivum; details: Postemergence
Outline: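 For postemergence, application to 1- to 4-leaf plants growing in a 60:40 sandy loam–potting mix substrate. Formulation: non-phytotoxic solvent mixture plus surfactant. Untreated controls served as the reference for the visual rating after ~21–28 days.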

winter wheat [2] = assay: Test E winter wheat; format: in vivo, Triticum aestivum; details: Preemergence
duck salad = assay: Test B flood test duck salad; format: in vivo, Heteranthera limosa
Outline: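 Plants were grown to the 2-leaf stage before treatment with test chemical, then held in a greenhouse for twelve to sixteen days. Injury was visually rated against untreated controls on a 0–10 scale, where 0 is no effect and 10 is complete control.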

purple nutsedge = assay: Test B pre/postemergence purple nutsedge; format: in vivo, Cyperus rotundus
Outline: as §1

sugar beet = assay: Test B pre/postemergence sugar beet; format: in vivo, Beta vulgaris
Outline: as §1

green foxtail = assay: Test E green foxtail; format: in vivo, Setaria viridis; details: Preemergence
blackgrass = assay: Test E blackgrass; format: in vivo, Alopecurus myosuroides; details: Preemergence
winter barley = assay: Test E winter barley; format: in vivo, Hordeum vulgare; details: Preemergence
[3] = Rate 500 g/ha, 0 to 100 scale (0 no effect, 100 complete control)
[4] = Rate 1000 g/ha, 0 to 100 scale, 0 no effect, 100 complete control
[5] = Postemergence, Rate 125 g/ha, scale 0 to 10, 0 is no effect, 10 is complete control
[6] = Postemergence, Rate 250 g/ha, scale 0 to 10, 0 is no effect, 10 is complete control
[7] = Preemergence, Rate 62 g/ha, scale 0 to 10 (0 no effect, 10 complete control)
[8] = Preemergence, Rate 250 g/ha, scale of 0 to 10 where 0 is no effect and 10 is complete control
[9] = Preemergence, Rate 500 g/ha, scale of 0 to 10 where 0 is no effect and 10 is complete control
[10] = Rate 62 g/ha, Postemergence, scale of 0 to 10 where 0 is no effect and 10 is complete control
[11] = Rate 500 g/ha, Postemergence, scale 0 to 10, 0 no effect, 10 complete control
[12] = Rate 500 g/ha, 0 to 100 scale, 0 is no effect, 100 is complete control
[13] = Rate 125 g/ha, Pre-emergence, flood test species, scale 0 to 10 where 0 is no effect and 10 is complete control
[14] = Rate 250 g/ha, Pre-emergence, flood-test species, scale 0 to 10, 0 is no effect, 10 is complete control
[15] = Rate 500 g/ha, Pre-emergence, flood test species, scale 0 to 10 (0 no effect, 10 complete control)
[16] = Rate 500 g/ha, 0 to 100 scale where 0 is no effect and 100 is complete control
[17] = Preemergence, Rate 62 g/ha, scale of 0 to 10 where 0 is no effect and 10 is complete control
[18] = Rate 125 g/ha, Postemergence, scale 0 to 10
[19] = Rate 125 g/ha, Preemergence, scale of 0 to 10 where 0 is no effect and 10 is complete control
[20] = Rate 500 g/ha, Postemergence, scale 0 to 10
[21] = Rate 62 g/ha, headed Pre-emergence (flood test species), scale 0 to 10 (0 no effect, 10 complete control)
[22] = Rate 125 g/ha, 0 to 100 scale (0 no effect, 100 complete control)
[23] = Preemergence, Rate 125 g/ha, 0 is no effect, 10 is complete control
[24] = Preemergence, Rate 250 g/ha, scale 0 to 10, 0 is no effect, 10 is complete control
[25] = Preemergence, Rate 500 g/ha, scale 0 to 10 (0 no effect, 10 complete control)

CC1CC1n1c(=O)on(C(=O)N(c2ccc(Cl)cc2)C(C)C)c1=O (stereo not drawn) [Compound 369]
Plant response rating, Wild oat (wild oat; Rate 250 g/ha, 0 to 100 scale): 65
Plant response rating, Wild oat (wild oat; [3]): 70
Plant response rating, Wild oat (wild oat; [4]): 75
Plant response rating, I. Ryegrass (Italian ryegrass; Rate 250 g/ha, 0 to 100 scale): 50
Plant response rating, I. Ryegrass (Italian ryegrass; [3]): 65
Plant response rating, I. Ryegrass (Italian ryegrass; [4]): 70
Plant response rating, Rape (rape; [5]): 0
Plant response rating, Rape (rape; [6]): 0
Plant response rating, Rape (rape; [7]): 0
Rape plant response rating (0 to 10 scale) (rape; Preemergence, Rate 125 g/ha): 0
Rape plant response rating (rape; [8]): 2
Rape plant response rating (rape; [9]): 5
Rape plant response rating (rape; [10]): 0
Plant response rating, Rape (rape; [11]): 3
Plant response rating, Wheat (winter) (winter wheat [1]; Rate 250 g/ha, 0 to 100 scale, 0 is no effect, 100 is complete control): 60
Plant response rating, Wheat (winter) (winter wheat [1]; Rate 1000 g/ha, 0 to 100 scale where 0 is no effect and 100 is complete control): 70
Plant response rating, Wheat (winter) (winter wheat [1]; [12]): 70
Plant response rating, Wheat (winter) (winter wheat [2]; Rate 250 g/ha, 0 to 100 scale): 60
Plant response rating, Wheat (winter) (winter wheat [2]; [3]): 55
Plant response rating, Wheat (winter) (winter wheat [2]; [4]): 70
Plant response rating, Ducksalad (duck salad; Postemergence (flood test), Rate 125 g/ha, scale 0 to 10, 0 is no effect, 10 is complete control): 0
Ducksalad plant response rating (duck salad; Rate 62 g/ha, Postemergence (flood test species), scale of 0 to 10 where 0 is no effect and 10 is complete control): 0
Plant response rating, Ducksalad (0 to 10 scale, 0 is no effect, 10 is complete control) (duck salad; Rate 62 g/ha, flood test species, Pre-emergence, visual evaluation after twelve to sixteen days): 0
Ducksalad plant response rating (duck salad; [13]): 0
Ducksalad plant response rating (duck salad; [14]): 0
Plant response rating, Ducksalad (duck salad; Rate 500 g/ha, listed under Postemergence (flood test species), scale 0 to 10, 0 no effect, 10 complete control): 2
Ducksalad plant response rating (duck salad; [15]): 0
Plant response rating, Ducksalad (duck salad; flood test species, listed under Postemergence, Rate 250 g/ha, scale 0 to 10, 0 is no effect, 10 is complete control): 2
Plant response rating, Nutsedge (purple nutsedge; [5]): 0
Plant response rating, Nutsedge (purple nutsedge; [6]): 0
Plant response rating, Nutsedge (purple nutsedge; [7]): 0
Nutsedge plant response rating (0 to 10 scale) (purple nutsedge; Preemergence, Rate 125 g/ha): 0
Nutsedge plant response rating (purple nutsedge; [8]): 0
Nutsedge plant response rating (purple nutsedge; [9]): 5
Nutsedge plant response rating (purple nutsedge; [10]): 0
Plant response rating, Nutsedge (purple nutsedge; [11]): 3
Plant response rating, Sugarbeets (sugar beet; [5]): 0
Plant response rating, Sugarbeets (sugar beet; [6]): 0
Plant response rating, Sugarbeets (sugar beet; [7]): 0
Sugarbeets plant response rating (0 to 10 scale) (sugar beet; Preemergence, Rate 125 g/ha): 0
Sugarbeets plant response rating (sugar beet; [8]): 2
Sugarbeets plant response rating (sugar beet; [9]): 4
Sugarbeets plant response rating (sugar beet; [10]): 0
Plant response rating, Sugarbeets (sugar beet; [11]): 2
Plant response rating, Green foxtail (green foxtail; Rate 250 g/ha, 0 to 100 scale): 50
Plant response rating, Green foxtail (green foxtail; [3]): 85
Plant response rating, Green foxtail (green foxtail; [4]): 100
Plant response rating, Blackgrass (blackgrass; Rate 250 g/ha, 0 to 100 scale): 85
Plant response rating, Blackgrass (blackgrass; [3]): 70
Plant response rating, Blackgrass (blackgrass; [4]): 100
Plant response rating, Barley (winter) (winter barley; Rate 250 g/ha, 0 to 100 scale, 0 no effect, 100 complete control): 70
Plant response rating, Barley (winter) (winter barley; [3]): 50
Plant response rating, Barley (winter) (winter barley; [4]): 60

C#CCn1c(=O)on(C(=O)N(c2ccc(F)cc2)C(C)C)c1=O [Compound 212]
Wild oat plant response rating (0 to 100 scale) (wild oat; Rate 250 g/ha): 60
Plant response rating, Wild oat (wild oat; [16]): 70
Plant response rating, Wild oat (wild oat; [4]): 70
I. Ryegrass plant response rating (0 to 100 scale) (Italian ryegrass; Rate 250 g/ha): 60
Plant response rating, I. Ryegrass (Italian ryegrass; [16]): 70
Plant response rating, I. Ryegrass (Italian ryegrass; [4]): 70
Rape plant response rating (rape; [17]): 0
Rape plant response rating (rape; [8]): 6
Plant response rating, Rape (rape; [9]): 8
Rape plant response rating (rape; [10]): 0
Rape plant response rating (rape; [18]): 0
Rape plant response rating (rape; [19]): 0
Plant response rating (0 to 10; 0 is no effect, 10 is complete control), Rape (rape; Rate 250 g/ha, Postemergence): 0
Rape plant response rating (rape; [20]): 3
Plant response rating, Wheat (winter) (winter wheat [1]; Rate 1000 g/ha, 0 to 100 scale, 0 is no effect and 100 is complete control): 75
Plant response rating, Wheat (winter) (winter wheat [1]; [12]): 70
Wheat (winter) plant response rating (0 to 100 scale) (winter wheat [2]; Rate 250 g/ha): 10
Plant response rating, Wheat (winter) (winter wheat [2]; [16]): 30
Plant response rating, Wheat (winter) (winter wheat [2]; [4]): 60
Ducksalad plant response rating (duck salad; [21]): 0
Ducksalad plant response rating (duck salad; [13]): 0
Ducksalad plant response rating (duck salad; [14]): 0
Ducksalad plant response rating (duck salad; [15]): 2
Nutsedge plant response rating (purple nutsedge; [17]): 0
Nutsedge plant response rating (purple nutsedge; [8]): 0
Plant response rating, Nutsedge (purple nutsedge; [9]): 0
Nutsedge plant response rating (purple nutsedge; [10]): 0
Nutsedge plant response rating (purple nutsedge; [18]): 0
Nutsedge plant response rating (purple nutsedge; [19]): 0
Plant response rating (0 to 10; 0 is no effect, 10 is complete control), Nutsedge (purple nutsedge; Rate 250 g/ha, Postemergence): 0
Nutsedge plant response rating (purple nutsedge; [20]): 0
Sugarbeets plant response rating (sugar beet; [17]): 0
Sugarbeets plant response rating (sugar beet; [8]): 5
Plant response rating, Sugarbeets (sugar beet; [9]): 8
Sugarbeets plant response rating (sugar beet; [10]): 0
Sugarbeets plant response rating (sugar beet; [18]): 0
Sugarbeets plant response rating (sugar beet; [19]): 5
Plant response rating (0 to 10; 0 is no effect, 10 is complete control), Sugarbeets (sugar beet; Rate 250 g/ha, Postemergence): 0
Sugarbeets plant response rating (sugar beet; [20]): 5
Green foxtail plant response rating (0 to 100 scale) (green foxtail; Rate 250 g/ha): 55
Plant response rating, Green foxtail (green foxtail; [16]): 65
Plant response rating, Green foxtail (green foxtail; [4]): 100
Blackgrass plant response rating (0 to 100 scale) (blackgrass; Rate 250 g/ha): 20
Plant response rating, Blackgrass (blackgrass; [16]): 50
Plant response rating, Blackgrass (blackgrass; [4]): 65
Barley (winter) plant response rating (0 to 100 scale) (winter barley; Rate 250 g/ha): 20
Plant response rating, Barley (winter) (winter barley; [16]): 40
Plant response rating, Barley (winter) (winter barley; [4]): 50

Cc1nc(C)c(Cn2c(=O)on(C(=O)N(c3ccc(F)cc3)C(C)C)c2=O)s1 [Compound 192]
Plant response rating, Wild oat (wild oat; [22]): 30
Plant response rating, Wild oat (wild oat; [16]): 55
Plant response rating, I. Ryegrass (Italian ryegrass; [22]): 20
Plant response rating, I. Ryegrass (Italian ryegrass; [16]): 60
Rape plant response rating (rape; [17]): 0
Rape plant response rating (0 to 10 scale) (rape; [23]): 0
Rape plant response rating (rape; [24]): 4
Rape plant response rating (rape; [25]): 9
Rape plant response rating (rape; [10]): 0
Rape plant response rating (rape; [18]): 0
Plant response rating (0 to 10; 0 is no effect, 10 is complete control), Rape (rape; Rate 250 g/ha, Postemergence): 2
Rape plant response rating (rape; [20]): 2
Plant response rating, Wheat (winter) (winter wheat [1]; Rate 125 g/ha, 0 to 100 scale): 30
Plant response rating, Wheat (winter) (winter wheat [1]; [12]): 50
Plant response rating, Wheat (winter) (winter wheat [2]; [22]): 10
Plant response rating, Wheat (winter) (winter wheat [2]; [16]): 40
Ducksalad plant response rating (duck salad; [21]): 0
Ducksalad plant response rating (duck salad; [13]): 0
Ducksalad plant response rating (duck salad; [14]): 0
Plant response rating, Ducksalad (duck salad; Rate 500 g/ha, headed Pre-emergence (flood test species), scale 0 to 10 (0 no effect, 10 complete control)): 0
Nutsedge plant response rating (purple nutsedge; [17]): 0
Nutsedge plant response rating (0 to 10 scale) (purple nutsedge; [23]): 0
Nutsedge plant response rating (purple nutsedge; [10]): 0
Nutsedge plant response rating (purple nutsedge; [18]): 0
Plant response rating (0 to 10; 0 is no effect, 10 is complete control), Nutsedge (purple nutsedge; Rate 250 g/ha, Postemergence): 0
Nutsedge plant response rating (purple nutsedge; [20]): 0
Sugarbeets plant response rating (sugar beet; [17]): 0
Sugarbeets plant response rating (0 to 10 scale) (sugar beet; [23]): 0
Sugarbeets plant response rating (sugar beet; [24]): 0
Sugarbeets plant response rating (sugar beet; [25]): 8
Sugarbeets plant response rating (sugar beet; [10]): 0
Sugarbeets plant response rating (sugar beet; [18]): 0
Plant response rating (0 to 10; 0 is no effect, 10 is complete control), Sugarbeets (sugar beet; Rate 250 g/ha, Postemergence): 0
Sugarbeets plant response rating (sugar beet; [20]): 5
Plant response rating, Green foxtail (green foxtail; [22]): 50
Plant response rating, Green foxtail (green foxtail; [16]): 65
Plant response rating, Blackgrass (blackgrass; [22]): 40
Plant response rating, Blackgrass (blackgrass; [16]): 50
Plant response rating, Barley (winter) (winter barley; [22]): 20
Plant response rating, Barley (winter) (winter barley; [16]): 30
